Test results as given in PMC4081582, “Enhancing Effect of Borneol and Muscone on Geniposide Transport across the Human Nasal Epithelial Cell Monolayer” (PLoS ONE, 2014).

Experiments:
[1] = mice, intravenous administration; cited from earlier work
[2] = cited from earlier work
[3] = tested on: HNECs; assay: MTT cytotoxicity assay on HNECs; format: cell-based, human; conditions: 24 h
Experimental: The cytotoxicity of the main active ingredients in “Xing Nao Jing” on HNECs was evaluated by the methyl thiazolyl tetrazolium (MTT) colorimetric assay. Briefly, 100 µL of 5×10^4 cells·mL^−1 was seeded into 96-well plates. After 24 h, the medium was removed and replaced with a fresh medium containing increasing concentrations of geniposide, borneol, muscone and their combinations for another 24 h. After that, 15 µL of a 5 mg·mL^−1 MTT solution in 100 µL BEGM was added to each well. After 4 h of incubation, the supernatant was discarded and formazan crystals were dissolved in DMSO followed by vigorous mixing. Control wells were incubated with BEGM only and were treated similarly as above. The optical density was determined at 490 nm with a Multiskan Go microplate reader (Thermo, USA). The percent viability of the cells was determined from the absorbance values considering that of the control as 100%.
The percentage of cell toxicity in the MTT assay was calculated by the following equation (1): [drawing 1]

[4] = tested on: P-gp; assay: P-gp substrate assessment from bidirectional transport in HNEC monolayer; format: in vitro ADME, human; conditions: HNEC model
Experimental: (§1) The transport experiments were carried out when transepithelial electrical resistance (TEER) value was higher than 500 Ω·cm^2. The transport studies were performed by initially incubating the monolayers in Hanks balanced salt solution (HBSS) for 30 min at 37 °C. To measure apical (A) → basolateral (B) transport, 0.5 mL of drug solution and 1.5 mL of HBSS were added in the A and B sides, respectively. Basolateral (B) → apical (A) transport was evaluated by adding 1.5 mL of drug solution in B side and 0.5 mL of HBSS in A side.
(§2) The apparent permeability coefficients (Papp) for geniposide were calculated according to the following equation (2): [drawing 2] where Papp is the permeability, dQ/dt is the apparent appearance rate of drug in the receiver side calculated using linear regression of amounts in the receiver chamber versus time, C is the drug concentration in the donor chamber and S is the surface area of the monolayer. The efflux ratio (ER) was calculated according to the following equation (3): [drawing 3]

[5] = tested on: HNEC monolayer; assay: Transport of geniposide across the HNEC monolayer; format: in vitro ADME, human; conditions: for B→A fluxes of geniposide / A→B fluxes of geniposide: P<0.05 vs control
Experimental: (§3) When HNECs reached approximately 80–90% confluence, the cells were detached with trypsin and were seeded at a density of 2×10^5 cells·cm^−2 on PET inserts. The culture medium was BEGM:DMEM/F12 (1∶1) in both sides at 37 °C in an atmosphere of 5% CO2 and 95% relative humidity, which was first changed after 24 h of seeding and then every 2 days.
as §1
(§4) Geniposide transport was studied at three concentrations: 25, 50 and 100 µg·mL^−1. The effect of borneol was studied at 27.8, 55.6 and 111.2 µg·mL^−1 concentrations in the presence of 50 µg·mL^−1 geniposide. The effect of muscone was studied at 4.17, 8.34 and 16.68 µg·mL^−1 concentrations in the presence of 50 µg·mL^−1 geniposide. Finally, the effects of both borneol and muscone were studied at the concentrations mentioned above in the presence of 50 µg·mL^−1 geniposide.
(§5) Each measurement was evaluated in triplicate. Cells were incubated in a 37 °C shaking incubator. Samples of 200 µL were taken from the apical side (to study B → A transport) and samples of 600 µL were taken from the basal side (to study A → B transport) at 30, 60, 90, 120, 150, 180 min time intervals. The same volume of fresh preheated HBSS was added to keep the volume constant. Samples were centrifuged for 10 min at 12,000 r·min^−1 and the supernatant was analyzed for geniposide by HPLC.
(§6) An UV-HPLC method was used to quantify the geniposide concentrations in the transport studies. The chromatographic conditions consisted of a Purospher Star C18 column (4×200 mm, particle size 5 µm) plus guard column. Geniposide samples were analyzed with UV detection (λ = 238 nm) and the mobile phase was composed of acetonitrile and water (16∶84, v/v). The mobile phase was pumped at a flow rate of 1 mL·min^−1 and the injected volume was 20 µL. In these conditions, the retention time of geniposide was 8.5 min.
as §2

[6] = Transport of geniposide across the HNEC monolayer; format: in vitro ADME, human; conditions: human
Experimental: as §3, §1, §4, §5, §6, §2

[7] = tested on: HNECs; assay: Membrane fluidity of HNECs by FRAP; format: cell-based, human
Experimental: The cells were seeded on cell plate at a density of 5×10^4 cells·cm^−2. The above formulation groups were added and the plates were incubated for 3 h at 37 °C in a 5% CO2 incubator. Cells were rinsed with HBSS and stained with NBD-C6-HPC at 2 µg·mL^−1 for 30 min.
A method of fluorescence recovery after photobleaching (FRAP) was used here. After the definition of line scanning position, length and photobleaching position, the monolayer was visualized by a Confocal Laser Scanning Microscope under the following conditions: excitation wavelength of 488 nm, emission wavelength of 530 nm, laser power for fluorescence bleaching of 100%, bleaching time of 0.7 s, scanning frequency of 1.65 s and the total scanning time of 100 s. The fluorescence intensity time-variation at the photobleaching position was recorded and image formation was obtained by confocal tomoscanning.
The membrane fluidity was represented by fluorescence recovery rate (R) which was calculated with the following equation (4): [drawing 4] where F0 is the instant fluorescence value after photobleaching, F1 is the fluorescence value before photobleaching and F2 is the fluorescence recovery value after photobleaching.

[8] = rats, at 3 h; cited from earlier work
[9] = tested on: actin; assay: Actin immunostaining of HNEC monolayer (tight junction); format: cell-based, human; conditions: 3 h exposure with geniposide 50 µg·mL^−1, vs control
Text: Cells cultured on 12-well polyester membrane Transwell clear inserts were stained for actin. […] Fluorescence was visualized on an epifluorescence microscope (IX-71, Olympus, Japan) using a blue filter and images were taken using the analysis software.

[10] = tested on: HNEC monolayer; assay: TEER measurement of HNEC monolayer; format: cell-based, human
Experimental: Transepithelial electrical resistance was measured using an EVOM instrument (Millipore Corporation, USA) to check the monolayer integrity. The TEER of untreated cells and cells treated with borneol and muscone was determined in BEGM:DMEM/F12 (1∶1) before the experiment, after the experiment and after 24 h.

[11] = Ge 50 µg·mL^−1 +Bo 27.8 µg·mL^−1
[12] = Ge 50 µg·mL^−1 +Bo 27.8 µg·mL^−1 Mu 4.17 µg·mL^−1
[13] = Ge 50 µg·mL^−1 +Bo 55.6 µg·mL^−1
[14] = Ge 50 µg·mL^−1 +Bo 55.6 µg·mL^−1 Mu 8.34 µg·mL^−1
[15] = Ge 50 µg·mL^−1 +Bo 111.2 µg·mL^−1
[16] = Ge 50 µg·mL^−1 +Bo 111.2 µg·mL^−1 Mu 16.68 µg·mL^−1
[17] = Ge 50 µg·mL^−1 +Mu 4.17 µg·mL^−1
[18] = Ge 50 µg·mL^−1 +Mu 8.34 µg·mL^−1
[19] = Ge 50 µg·mL^−1 +Mu 16.68 µg·mL^−1
[20] = geniposide 50 µg·mL^−1 alone (control)

Compound: COC(=O)C1=CO[C@@H](O[C@@H]2O[C@H](CO)[C@@H](O)[C@H](O)[C@H]2O)[C@@H]2C(CO)=CC[C@H]12 [geniposide, Geniposide]
- brain/blood drug ratio [1]: about 10%
- apparent partition coefficient between octanol and water [2]: about 0.108
- concentration range with no cell cytotoxicity [3]: 0 to 400000 ng/mL
- P-gp substrate [4]: not a P-gp substrate
- ER±SD(B→A/A→B) [5, 11]: 1.388±0.162
- ER±SD(B→A/A→B) [5, 12]: 1.268±0.057
- ER±SD(B→A/A→B) [5, 13]: 1.429±0.149
- ER±SD(B→A/A→B) [5, 14]: 1.092±0.023
- ER±SD(B→A/A→B) [5, 15]: 1.012±0.106
- ER±SD(B→A/A→B) [5, 16]: 1.245±0.026
- ER±SD(B→A/A→B) [5, 17]: 1.400±0.071
- ER±SD(B→A/A→B) [5, 18]: 1.268±0.033
- ER±SD(B→A/A→B) [5, 19]: 1.072±0.069
- B→A fluxes of geniposide ([5]; Ge 50 µg·mL^−1 combined with borneol (27.8, 55.6, 111.2 µg·mL^−1)): significantly increased
- B→A fluxes of geniposide ([5]; Ge 50 µg·mL^−1 combined with muscone (4.17, 8.34, 16.68 µg·mL^−1)): significantly increased
- A→B fluxes of geniposide ([5]; Ge 50 µg·mL^−1 in presence of borneol (111.2 µg·mL^−1)): significantly increased
- A→B fluxes of geniposide ([5]; Ge 50 µg·mL^−1 in presence of muscone (8.34, 16.68 µg·mL^−1)): significantly increased
- permeability values in both directions ([5]; Ge 50 µg·mL^−1 in the presence of borneol and muscone (Bo 27.8/Mu 4.17, Bo 55.6/Mu 8.34, Bo 111.2/Mu 16.68 µg·mL^−1), P<0.05): an increasing of permeability values in both directions was observed in a concentration-dependent manner
- (B→A)/(A→B) permeability ER ([5]; geniposide 25, 50 and 100 µg·mL^−1): less than 2
- Papp A→B at 180 min, 50 µg·mL^−1 [6, 11]: 1.17 ± 0.12 ×10⁻⁶ cm/s
- Papp B→A at 180 min, 50 µg·mL^−1 [6, 11]: 1.61 ± 0.034 ×10⁻⁶ cm/s
- Papp A→B at 180 min, 50 µg·mL^−1 [6, 12]: 1.43 ± 0.083 ×10⁻⁶ cm/s
- Papp B→A at 180 min, 50 µg·mL^−1 [6, 12]: 1.81 ± 0.024 ×10⁻⁶ cm/s
- Papp A→B at 180 min, 50 µg·mL^−1 [6, 13]: 1.35 ± 0.086 ×10⁻⁶ cm/s
- Papp B→A at 180 min, 50 µg·mL^−1 [6, 13]: 1.92 ± 0.111 ×10⁻⁶ cm/s
- Papp A→B at 180 min, 50 µg·mL^−1 [6, 14]: 1.75 ± 0.043 ×10⁻⁶ cm/s
- Papp B→A at 180 min, 50 µg·mL^−1 [6, 14]: 1.916 ± 0.019 ×10⁻⁶ cm/s
- Papp A→B at 180 min, 50 µg·mL^−1 [6, 15]: 1.99 ± 0.293 ×10⁻⁶ cm/s
- Papp B→A at 180 min, 50 µg·mL^−1 [6, 15]: 1.99 ± 0.126 ×10⁻⁶ cm/s
- Papp A→B at 180 min, 50 µg·mL^−1 [6, 16]: 1.92 ± 0.049 ×10⁻⁶ cm/s
- Papp B→A at 180 min, 50 µg·mL^−1 [6, 16]: 2.39 ± 0.052 ×10⁻⁶ cm/s
- Papp A→B at 180 min, 50 µg·mL^−1 [6, 17]: 1.15 ± 0.068 ×10⁻⁶ cm/s
- Papp B→A at 180 min, 50 µg·mL^−1 [6, 17]: 1.6 ± 0.021 ×10⁻⁶ cm/s
- Papp A→B at 180 min, 50 µg·mL^−1 [6, 18]: 1.61 ± 0.054 ×10⁻⁶ cm/s
- Papp B→A at 180 min, 50 µg·mL^−1 [6, 18]: 2.039 ± 0.018 ×10⁻⁶ cm/s
- Papp A→B at 180 min, 50 µg·mL^−1 [6, 19]: 1.97 ± 0.108 ×10⁻⁶ cm/s
- Papp B→A at 180 min, 50 µg·mL^−1 [6, 19]: 2.104 ± 0.02 ×10⁻⁶ cm/s
- Papp A→B at 180 min, 25 µg·mL^−1 ([6]; geniposide 25 µg·mL^−1): 1.27 ± 0.314 ×10⁻⁶ cm/s
- Papp B→A at 180 min, 25 µg·mL^−1 ([6]; geniposide 25 µg·mL^−1): 1.35 ± 0.113 ×10⁻⁶ cm/s
- efflux ratio at 180 min, 25 µg·mL^−1 ([6]; geniposide 25 µg·mL^−1, read-out: ER±SD(B→A/A→B)): 1.1 ± 0.256
- Papp A→B at 180 min, 50 µg·mL^−1 [6, 20]: 1.22 ± 0.015 ×10⁻⁶ cm/s
- Papp B→A at 180 min, 50 µg·mL^−1 [6, 20]: 1.26 ± 0.084 ×10⁻⁶ cm/s
- efflux ratio at 180 min, 50 µg·mL^−1 ([6]; geniposide 50 µg·mL^−1 alone (control), read-out: ER±SD(B→A/A→B)): 1.03 ± 0.076
- Papp A→B at 180 min, 100 µg·mL^−1 ([6]; geniposide 100 µg·mL^−1): 1.25 ± 0.074 ×10⁻⁶ cm/s
- Papp B→A at 180 min, 100 µg·mL^−1 ([6]; geniposide 100 µg·mL^−1): 1.19 ± 0.104 ×10⁻⁶ cm/s
- efflux ratio at 180 min, 100 µg·mL^−1 ([6]; geniposide 100 µg·mL^−1, read-out: ER±SD(B→A/A→B)): 0.951 ± 0.132
- Papp at 180 min ([6]; HNEC monolayer, geniposide 25-100 µg·mL^−1, read-out: permeability coefficients): 1.22 to 1.27 ×10⁻⁶ cm/s
- Fluorescence recovery rate R (%)±SD ([7]; Ge 50 µg·mL^−1 alone (control), 3 h): 33.08±1.74%
- absorption percentage in the intestinal tract [8]: about 15.9%

Compound: CC1(C)C2CCC1(C)C(O)C2 (centres unmarked) [borneol, Borneol]
- concentration range with no cell cytotoxicity [3]: 0 to 300000 ng/mL
- levels of the TJ proteins localized in the cell-cell junctions [9]: decreased
- Fluorescence recovery rate R (%)±SD ([7]; Bo 27.8 µg·mL^−1 with Ge 50 µg·mL^−1, 3 h): 37.08±5.05%
- Fluorescence recovery rate R (%)±SD ([7]; Bo 55.6 µg·mL^−1 with Ge 50 µg·mL^−1, 3 h): 49.60±4.21 %
- Fluorescence recovery rate R (%)±SD ([7]; Bo 111.2 µg·mL^−1 with Ge 50 µg·mL^−1, 3 h): 57.33±4.62 %
- TEER after washing and incubating with BEGM:DMEM/F12 (1∶1) for 24 h ([10]; after permeation experiment): increased again
- TEER decrease during permeation studies, of the initial value ([10]; borneol 55.6, 111.2 µg·mL^−1, muscone 8.34, 16.68 µg·mL^−1, and combinations, P<0.05): 10–20%
